Source: patent US20260049075A1, “CYTOTOXIC IMIDAZO[1,2-A]PYRIDINE COMPOUNDS AND THEIR USE IN THERAPY” (MyricX Pharma Limited, priority 2022, published 2026)

Experiments:
[1] = target: T1, human NMT1 (HsNMT1) (Homo sapiens, UniProt P30419); assay: HsNMT1 sensitive fluorescence-based assay (CoA detection with CPM); type: biochemical
T1 sequence (P30419 1-496): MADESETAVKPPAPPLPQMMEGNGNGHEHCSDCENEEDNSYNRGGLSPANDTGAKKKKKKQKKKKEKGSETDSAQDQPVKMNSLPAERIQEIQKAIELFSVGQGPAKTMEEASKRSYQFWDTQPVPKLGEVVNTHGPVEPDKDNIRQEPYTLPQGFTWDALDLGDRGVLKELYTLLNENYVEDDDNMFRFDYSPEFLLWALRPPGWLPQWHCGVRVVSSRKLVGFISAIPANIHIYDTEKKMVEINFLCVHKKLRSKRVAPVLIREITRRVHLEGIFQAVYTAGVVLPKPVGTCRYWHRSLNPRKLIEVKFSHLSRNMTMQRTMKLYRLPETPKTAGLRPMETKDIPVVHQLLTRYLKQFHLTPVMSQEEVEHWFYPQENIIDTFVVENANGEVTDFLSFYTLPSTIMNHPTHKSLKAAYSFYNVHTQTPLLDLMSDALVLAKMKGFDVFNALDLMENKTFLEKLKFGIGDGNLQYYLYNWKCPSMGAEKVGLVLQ

[2] = system: DOHH-2 tumor cells; assay: Subcutaneous xenograft DOHH-2 Lymphoma Model; type: in vivo, mouse; settings: CB17/SCID mice
Protocol: The in vivo efficacy of certain Example compounds was assessed in a subcutaneous xenograft DOHH-2 Lymphoma Model using 10 female 6-8 week old CB17/SCID Mice. Each mouse was inoculated subcutaneously at the right front region with DOHH-2 tumor cells (5×10^6) in 0.1 ml of PBS mixed with matrigel (1:1 PBS:matrigel) for tumor development. The test compound administration started once the mean tumor size reached approximately 100-150 mm^3. Compounds were administered either IP (vehicle 10 mM sodium phosphate+0.2% Tween-80 (pH7.4) or orally (vehicle 15 Na2HPO4 buffer (10 mM) (pH 4.5)+0.2% tween 80). Tumor volumes were measured in two dimensions using a caliper, and the volume expressed in mm^3 using the formula: V=(L×W×W)/2, where V is tumor volume, L is tumor length (the longest tumor dimension) and W is tumor width (the longest tumor dimension perpendicular to L). Mice were dosed with Example 21 orally (12.5 or 25 mg/kg) once a day for 9 consecutive days (FIG. 3). Example 5 was dosed intraperitoneally (7 or 20 mg/kg) in a cycle consisting of administration QD for three days followed by a three day no-dosing period followed by QD dosing for a further three days (FIG. 4). Example 12 was dosed intraperitoneally (0.7 or 2 mg/kg) in a cycle consisting of administration QD for three days followed by a three day no-dosing period followed by QD dosing for a further three days (FIG. 5). In a separate study Example 12 was dosed at […] in a cycle consisting of administration QD for two days followed by either four or six day no-dosing period, and this cycle was repeated three times (FIG. 6).
The protocol and any amendment(s) or procedures involving the care and use of animals in this study were reviewed and approved by the Institutional Animal Care and Use Committee (IACUC) of CrownBio prior to execution. During the study, the care and use of animals was conducted in accordance with the regulations of the Association for Assessment and Accreditation of Laboratory Animal Care (AAALAC).

[3] = system: BT474 breast cancer cells; assay: Orthotopic breast cancer xenograft model (BT474), tumour volume; type: in vivo, mouse; settings: 2.0 mg/kg IV, 2 days dosing then 5 day holiday; stopped at day 13
Protocol: NOD/SCID mice were implanted with estrogen pellets (17β-estradiol, 60 day release, 0.36 mg) subcutaneously in the right flank one day before the tumour inoculation. On day −8 each mouse was then injected in the right mammary fat pad with 1×10^7 viable BT474 breast cancer cells resuspended in 0.2 mL of Phosphate Buffered Saline mixed with matrigel (1:1). Mice were assigned to treatment groups when tumour volumes averaged 149.78 mm^3 on study day 0. […] The study was terminated on Study Day 35. […] Each group was comprised of 10 mice. Tumour volumes in mice were measured three times per week and tumour volume was calculated using the formula 0.5 (L×W^2). […] Statistical analyses were carried out on tumour readings for Groups 1, 2, 3, 4 and 5 up to Study Day 23 (after this point >50% of the animals within one of the study groups were lost; Group 2) using two-way ANOVA, or a Mixed-Effects model was fitted when values were missing from groups (PRISM GraphPad Software Inc.). Statistical analysis of Group 6 was conducted until day 12 (at this point the study was terminated due to the significant loss of observed body weight). Using a ROUT outlier analysis in GraphPad Prism, one mouse in Group 5 was identified as an outlier across all timepoints (at the 5% confidence level) and has therefore been excluded from analysis. […]

[4] = Body weight in BT474 xenograft study; type: in vivo, mouse; settings: 2 mg/kg IV, 2 days dosing then 5 day holiday; terminated early
Protocol: During the study, body weights were measured three times weekly for all animals. Animals were given Diet Gel for the entire duration on the study.

[5] = system: LNCaP tumour cells; assay: LNCaP prostate cancer xenograft model, tumour volume; type: in vivo, mouse; settings: for Day 28 tumour volume (mm^3, mean ± SEM) / Tumour growth inhibition (TGI, %): IV, Q7D (x3); for Day 28 tumour volume (mm^3, mean ± SEM): NOD SCID mice; for Tumour growth inhibition (TGI, %): day 28
Source text: A total of 84 male NOD SCID mice aged 5-8 weeks and weighing 25-30 g were used for the study.

[6] = system: VcaP tumour cells; assay: VcaP prostate cancer xenograft model, tumour volume; type: in vivo, mouse; settings: for ΔTGI (Study Day 17): CB17/SCID mice
Source text: All mice received two doses of test agent, on Study Day 1 and Study Day 8. The study was terminated on Study Day 30.

[7] = system: JIMT-1 tumour cells; assay: JIMT-1 breast cancer xenograft model, tumour volume; type: in vivo, mouse
Protocol: 80 mice were assigned to 8 treatment groups when tumour volumes averaged ˜160.66 mm^3 on Study Day 0. Dosing commenced the following day and all animals were dosed intravenously with ADC Example 3, sacituzumab govitecan or unconjugated sacituzumab. The study was terminated on the Study Day 60.

[8] = intraperitoneal dosing, Example 5 7 or 20 mg/kg, Example 12 0.7 or 2 mg/kg, QD cycles

CNCc1cnc2ccc(-c3ccc(F)c(F)c3OCCc3c(C(C)O)nn(C)c3C)cn12 (stereo not shown) [Example 5, 1-{4-[2-(2,3-difluoro-6-{3-[(methylamino)methyl]imidazo[1,2-a]pyridin-6-yl}phenoxy)ethyl]-1,5-dimethyl-1H-pyrazol-3-yl}ethan-1-ol]
IC50 [1]: 2.2 nM
tumour volume compared to vehicle [2, 8]: significant reduction in tumour volume or reduced growth in tumour volume

CNCc1cnc2ccc(-c3ccc(F)c(F)c3OCCc3c(C(O)C(C)(C)C)nn(C)c3C)cn12 (single isomer, unassigned) [Example 12, 1-(4-(2-(2,3-difluoro-6-(3-((methylamino)methyl)imidazo[1,2-a]pyridin-6-yl)phenoxy)ethyl)-1,5-dimethyl-1H-pyrazol-3-yl)-2,2-dimethylpropan-1-ol]
IC50 [1]: 2.1 nM
tumour volume compared to vehicle [2, 8]: significant reduction in tumour volume or reduced growth in tumour volume
tumour size [3]: reduced tumour size
body weights [4]: decreased significantly

CCNCc1cnc2ccc(-c3ccc(F)cc3OCCc3c(C(C)(C)O)nn(C)c3C)cn12 [Example 22, 2-{4-[2-(2-{3-[(ethylamino)methyl]imidazo[1,2-a]pyridin-6-yl}-5-fluorophenoxy)ethyl]-1,5-dimethyl-1H-pyrazol-3-yl}propan-2-ol]
IC50 [1]: 3 nM

Cc1c(CCOc2c(-c3ccc4ncc(CN)n4c3)ccc(F)c2F)c(C(C)(C)O)nn1C [Example 20, 2-[4-(2-{6-[3-(aminomethyl)imidazo[1,2-a]pyridin-6-yl]-2,3-difluorophenoxy}ethyl)-1,5-dimethyl-1H-pyrazol-3-yl]propan-2-ol]
IC50 [1]: 2 nM

Cc1c(CCOc2c(-c3ccc4ncc(CN)n4c3)ccc(F)c2F)c(C(O)C(C)(C)C)nn1C (stereo not shown) [Example 17, 1-(4-(2-(6-(3-(aminomethyl)imidazo[1,2-a]pyridin-6-yl)-2,3-difluorophenoxy)ethyl)-1,5-dimethyl-1H-pyrazol-3-yl)-2,2-dimethylpropan-1-ol]
IC50 [1]: 2 nM

CNCc1cnc2ccc(-c3ccc(F)c(F)c3OCCc3c(C(C)(C)O)nn(C)c3C)cn12 [Example 21, 2-(4-(2-(2,3-difluoro-6-(3-((methylamino)methyl)imidazo[1,2-a]pyridin-6-yl)phenoxy)ethyl)-1,5-dimethyl-1H-pyrazol-3-yl)propan-2-ol]
tumour volume compared to vehicle ([2]; oral dosing 12.5 or 25 mg/kg once a day for 9 days): significant reduction in tumour volume or reduced growth in tumour volume

Cc1c(CCOc2cc(F)ccc2-c2ccc3ncc(CCN)n3c2)c(C(C)O)nn1C (stereo not shown) [Example 7, 1-(4-(2-(2-(3-(2-aminoethyl)imidazo[1,2-a]pyridin-6-yl)-5-fluorophenoxy)ethyl)-1,5-dimethyl-1H-pyrazol-3-yl)ethan-1-ol]
IC50 [1]: 9 nM

ifinatamab: antibody binding CD276 (B7-H3); heavy chain SEQ ID NO: 6, light chain SEQ ID NO: 5
effect on LNCaP tumour volume compared to vehicle ([5]; 5 mg/kg): no significant effect
Day 28 tumour volume (mm^3, mean ± SEM) ([5]; 5 mg/kg): 551.4 ± 73.1 mm^3
Tumour growth inhibition (TGI, %) ([5]; 5 mg/kg): 30.6%
effect on LNCaP tumour volume compared to vehicle ([5]; 10 mg/kg): no significant effect
Day 28 tumour volume (mm^3, mean ± SEM) ([5]; 10 mg/kg): 666.56 ± 103.2 mm^3
Tumour growth inhibition (TGI, %) ([5]; 10 mg/kg): 13.0%
tumour volume compared to vehicle alone ([6]; 2.5 mg/kg): no significant difference
ΔTGI (Study Day 17) ([6]; 2.5 mg/kg IV QW x 2 weeks): 8.47%
tumour volume compared to vehicle alone ([6]; 5 mg/kg): no significant difference
ΔTGI (Study Day 17) ([6]; 5 mg/kg IV QW x 2 weeks): 12.44%

CNCc1cnc2ccc(-c3ccc(F)c(F)c3OCCc3c(C(O)C(C)C)nn(C)c3C)cn12 (stereo not shown) [Example 25, 1-{4-[2-(2,3-difluoro-6-{3-[(methylamino)methyl]imidazo[1,2-a]pyridin-6-yl}phenoxy)ethyl]-1,5-dimethyl-1H-pyrazol-3-yl}-2-methylpropan-1-ol]
IC50 [1]: 2 nM

sacituzumab
tumour volume compared to vehicle alone ([7]; 2.5 mg/kg): no significant difference
tumour volume compared to vehicle alone ([7]; 5 mg/kg): significant decrease in tumour volume

CNCc1cnc2ccc(-c3ccc(F)cc3OCCc3c(C(C)O)nn(C)c3C)cn12 (stereo not shown) [Example 1, 1-{4-[2-(5-fluoro-2-{3-[(methylamino)methyl]imidazo[1,2-a]pyridin-6-yl}phenoxy)ethyl]-1,5-dimethyl-1H-pyrazol-3-yl}ethan-1-ol]
IC50 [1]: 2.2 nM

sacituzumab govitecan [reference compound]
tumour volume compared to vehicle alone ([7]; 2.5 mg/kg): significant decrease in tumour volume
tumour volume compared to vehicle alone ([7]; 5 mg/kg): significant decrease in tumour volume

B1: ifinatamab-DXd (conjugate, chains of the INN, looked up)
VH: QVQLVQSGAEVKKPGSSVKVSCKASGYTFTNYVMHWVRQAPGQGLEWMGYINPYNDDVKYNEKFKGRVTITADESTSTAYMELSSLRSEDTAVYYCARWGYYGSPLYYFDYWGQGTLVTVSS
VL: EIVLTQSPATLSLSPGERATLSCRASSRLIYMHWYQQKPGQAPRPLIYATSNLASGIPARFSGSGSGTDFTLTISSLEPEDFAVYYCQQWNSNPPTFGQGTKVEIK
modifications: deruxtecan (DXd) payload
effect on LNCaP tumour volume compared to vehicle ([5]; 5 mg/kg): slowed the growth of LNCaP tumours to a lesser extent
Day 28 tumour volume (mm^3, mean ± SEM) ([5]; 5 mg/kg): 364.6 ± 51.7 mm^3
Tumour growth inhibition (TGI, %) ([5]; 5 mg/kg): 58.8%
effect on LNCaP tumour volume compared to vehicle ([5]; 10 mg/kg): significantly reduced the mean volume
Day 28 tumour volume (mm^3, mean ± SEM) ([5]; 10 mg/kg): 259.5 ± 50.3 mm^3
Tumour growth inhibition (TGI, %) ([5]; 10 mg/kg): 75.0%
tumour volume compared to vehicle alone ([6]; 2.5 mg/kg): no significant difference
ΔTGI (Study Day 17) ([6]; 2.5 mg/kg IV QW x 2 weeks): 5.24%
tumour volume compared to vehicle alone ([6]; 5 mg/kg): significantly higher tumour volume
ΔTGI (Study Day 17) ([6]; 5 mg/kg IV QW x 2 weeks): 2.86%
